Literature values in patent US20230321091A1, “SUBSTITUTED PYRIDAZINONES FOR USE IN THE TREATMENT OF NEUROMUSCULAR DISEASES” (Edgewise Therapeutics, Inc., priority 2020, published 2023).

Test system: embryos from zebrafish model of DMD

**Q.** With `Cc1ccc(S(=O)(=O)NCc2ccccc2)cc1` [BTS, N-benzyl-p-tolyl-sulfonamide] as the compound, how does the “protection of muscles from pathological muscle derangement” value read?
**A.** protect muscles from pathological muscle derangement
